ChEMBL document CHEMBL1125997 (Bioorg Med Chem Lett, 1991)

species: Cavia porcellus; assay: Inhibition of histamine-inducedcontraction of the isolated guinea-pig ileum; assay type: functional; details: read-out: pA2 (converted)

Structure (SMILES) | Kb [nM]
CC(C)(C)c1ccc([C@@H](O)CCCN2CCC(C(O)(c3ccccc3)c3ccccc3)CC2)cc1 | 19.1
CC(C)(C)c1ccc([C@H](O)CCCN2CCC(C(O)(c3ccccc3)c3ccccc3)CC2)cc1 [R-TERFENADINE] | 24.5
CC(C)(C)c1ccc(C(O)CCCN2CCC(C(O)(c3ccccc3)c3ccccc3)CC2)cc1 (stereo not drawn) [TERFENADINE] | 22.4
